# Test results from patent publication EP0354047A2, “Herbicidal method using atrazine” (MAY & BAKER LIMITED, priority 1988, dated 1990).
# What was measured:
# [1] = test system: maize var.Irla; assay: Experiment 5: glasshouse, crop plants at 3 leaf stage, percentage phytotoxicity after 12 days; conditions: for % crop phytotoxicity Maize (3 leaves): Atrazine 0 g/ha
# Procedure: An experiment was carried out to determine the biological interaction between atrazine and Compound 74 on maize. A wide range of dose rates of atrazine i.e. 250, 500, 1000 and 2000 g/ha (in a commercial suspension concentrate formulation containing 500g/l w/v atrazine) and of Compound 74 i.e. 31, 63, 125, 250, 1000 and 2000 g/ha (in a composition according to Example 2 as described hereinafter) were applied in a spray volume of 290litres/ha to four replicate 10cm square plastic plant pots of loam soil containing one maize plant, at the 3 leaf growth stage. Agricultural surfactant ('Agral') was added to the spray dilutions to give 0.2%v/v concentration.
# After spraying the pots were arranged in randomised blocks in a glasshouse and watered as necessary. After 12 days the plants were assessed for percentage phytotoxicity (reduction in green area compared with unsprayed plants) (0 = no effect 100 = complete destruction).
# E = X + Y […] where E, X and Y are percentage phytotoxicity.
# The ED values were then used to plot an isobole according to the method of P.M.L. Tammes op cit. The results of percentage phytotoxicity, the ED₂₀ values calculated from them and the calculated expected value are given in Table 9.
# [2] = test system: Eleusine indica; assay: Experiment 2: glasshouse experiment, seedlings at 4-leaf stage, percentage phytotoxicity after 19 days; format: in vivo
# Procedure: Agricultural surfactant - nonylphenol ethylene oxide condensate containing 9 moles ethylene oxide (in a commercial composition) was added to all spray dilutions to give 0.2% v/v concentration. […] The ED50 values were as follows:- The results were then used to plot an isobole with a "two-sided effect" according to the methods of […] op. cit. The isobole produced, shown hereinafter in Figure 1 was clearly a type III curve ([…]., page 75), characteristic of synergism.
# [3] = test system: Digitaria sanguinalis; assay: Experiment 3: glasshouse, post-emergence, fresh weight after 19 days, % inhibition of growth; format: in vivo; conditions: 3 leaves
# Procedure: (§1) A series of experiments was carried out to determine the nature of the biological interaction between atrazine and five compounds of general formula I on a range of weed species. […] The growth stages of the plants at spraying are also presented with the results. Agricultural surfactant (nonyl phenol ethylene oxide condensate containing 9 moles ethylene oxide marketed as 'Agral') was added to all spray dilutions to give 0.2% v/v concentration. […] After 19 days the fresh weight of vegetation in each pot was determined. […] E = […]00003:character} where E, X and Y are percentage inhibition of growth. In addition, the ED50 or ED90 values (the application rates giving 50% or 90% inhibition of growth, respectively) were calculated from the results for the piperidinedione alone and with increasing rates of atrazine.
# [4] = test system: Eleusine indica; assay: as above; format: in vivo; conditions: 3 leaves
# Procedure: as §1
# [5] = test system: Xanthium strumarium; assay: as above; format: in vivo; conditions: 2 leaves
# Procedure: as §1
# [6] = test system: Brassica kaber; assay: as above; format: in vivo; conditions: 2-3 leaves
# Procedure: as §1
# [7] = test system: Solanum nigrum; assay: as above; format: in vivo; conditions: 1-2 leaves
# Procedure: as §1
# [8] = test system: Sesbania exactata; assay: as above; format: in vivo; conditions: 2 leaves
# Procedure: as §1
# [9] = test system: Amaranthus retroflexus; assay: as above; format: in vivo; conditions: 2-4 leaves
# Procedure: as §1
# [10] = test system: Bidens pilosa; assay: as above; format: in vivo; conditions: 2 leaves
# Procedure: as §1
smiles,measurement,setting,value
"O=C1CCNC(=O)C1C(=O)c1ccc(C(F)(F)F)cc1[N+](=O)[O-] (stereo not drawn) [Compound 74, 3-(2-nitro-4-trifluoromethylbenzoyl)piperidine-2,4-dione]",% crop phytotoxicity Maize (3 leaves),[1]; Compound 74 63 g/ha,1%
same,% crop phytotoxicity Maize (3 leaves),[1]; Compound 74 125 g/ha,3%
same,% crop phytotoxicity Maize (3 leaves),[1]; Compound 74 250 g/ha,6%
same,% crop phytotoxicity Maize (3 leaves),[1]; Compound 74 500 g/ha,10%
same,% crop phytotoxicity Maize (3 leaves),[1]; Compound 74 1000 g/ha,30%
same,% crop phytotoxicity Maize (3 leaves),[1]; Compound 74 2000 g/ha,58%
same,ED₂₀,[1]; Compound 74 alone,ED₂₀(g/ha) 601
same,percentage phytotoxicity,[2]; Compound 74 16 g/ha alone,13%
same,percentage phytotoxicity,[2]; Compound 74 31 g/ha alone,12%
same,percentage phytotoxicity,[2]; Compound 74 63 g/ha alone,40%
same,percentage phytotoxicity,[2]; Compound 74 125 g/ha alone,50%
same,percentage phytotoxicity,[2]; Compound 74 250 g/ha alone,77%
same,ED₅₀,"[2]; Compound 74 alone, 50% phytotoxicity",101 g/ha
same,ED₉₀,[3]; Compound 74 alone,ED₉₀ (g/ha) 75.46
same,inhibition at 16 g/ha,"[3]; Digitaria sanguinalis, post-emergence, Compound 74 16 g/ha alone",55%
same,inhibition at 31 g/ha,"[3]; Digitaria sanguinalis, post-emergence, Compound 74 31 g/ha alone",75%
same,inhibition at 63 g/ha,"[3]; Digitaria sanguinalis, post-emergence, Compound 74 63 g/ha alone",88%
same,inhibition at 125 g/ha,"[3]; Digitaria sanguinalis, post-emergence, Compound 74 125 g/ha alone",96%
same,inhibition at 250 g/ha,"[3]; Digitaria sanguinalis, post-emergence, Compound 74 250 g/ha alone",99%
same,inhibition at 500 g/ha,"[3]; Digitaria sanguinalis, post-emergence, Compound 74 500 g/ha alone",100%
same,ED₅₀,[4]; Compound 74 alone,ED₅₀ (g/ha) 72.43
same,inhibition at 16 g/ha,"[4]; Eleusine indica, post-emergence, Compound 74 16 g/ha alone",0%
same,inhibition at 31 g/ha,"[4]; Eleusine indica, post-emergence, Compound 74 31 g/ha alone",26%
same,inhibition at 63 g/ha,"[4]; Eleusine indica, post-emergence, Compound 74 63 g/ha alone",55%
same,inhibition at 125 g/ha,"[4]; Eleusine indica, post-emergence, Compound 74 125 g/ha alone",84%
same,inhibition at 250 g/ha,"[4]; Eleusine indica, post-emergence, Compound 74 250 g/ha alone",96%
same,inhibition at 500 g/ha,"[4]; Eleusine indica, post-emergence, Compound 74 500 g/ha alone",95%
same,ED₉₀,[5]; Compound 74 alone,ED₉₀(g/ha) 166.99
same,inhibition at 8 g/ha,"[5]; Xanthium strumarium, post-emergence, Compound 74 8 g/ha alone",55%
same,inhibition at 16 g/ha,"[5]; Xanthium strumarium, post-emergence, Compound 74 16 g/ha alone",45%
same,inhibition at 31 g/ha,"[5]; Xanthium strumarium, post-emergence, Compound 74 31 g/ha alone",74%
same,inhibition at 125 g/ha,"[5]; Xanthium strumarium, post-emergence, Compound 74 125 g/ha alone",86%
same,inhibition at 163 g/ha,"[5]; Xanthium strumarium, post-emergence, Compound 74 163 g/ha alone",79%
same,inhibition at 250 g/ha,"[5]; Xanthium strumarium, post-emergence, Compound 74 250 g/ha alone",92%
same,ED₅₀,[6]; Compound 74 alone,ED₅₀(g/ha) 10.3
same,inhibition at 2 g/ha,"[6]; Mutarda arvensis, post-emergence, Compound 74 2 g/ha alone",19%
same,inhibition at 4 g/ha,"[6]; Mutarda arvensis, post-emergence, Compound 74 4 g/ha alone",20%
same,inhibition at 8 g/ha,"[6]; Mutarda arvensis, post-emergence, Compound 74 8 g/ha alone",32%
same,inhibition at 16 g/ha,"[6]; Mutarda arvensis, post-emergence, Compound 74 16 g/ha alone",61%
same,inhibition at 31 g/ha,"[6]; Mutarda arvensis, post-emergence, Compound 74 31 g/ha alone",72%
same,inhibition at 63 g/ha,"[6]; Mutarda arvensis, post-emergence, Compound 74 63 g/ha alone",96%
same,ED₉₀,[7]; Compound 74 alone,ED₉₀(g/ha) 41.13
same,inhibition at 2 g/ha,"[7]; Solanum nigrum, post-emergence, Compound 74 2 g/ha alone",15%
same,inhibition at 4 g/ha,"[7]; Solanum nigrum, post-emergence, Compound 74 4 g/ha alone",30%
same,inhibition at 8 g/ha,"[7]; Solanum nigrum, post-emergence, Compound 74 8 g/ha alone",39%
same,inhibition at 16 g/ha,"[7]; Solanum nigrum, post-emergence, Compound 74 16 g/ha alone",60%
same,inhibition at 31 g/ha,"[7]; Solanum nigrum, post-emergence, Compound 74 31 g/ha alone",82%
same,inhibition at 63 g/ha,"[7]; Solanum nigrum, post-emergence, Compound 74 63 g/ha alone",94%
same,ED₉₀,[8]; Compound 74 alone,ED₉₀(g/ha)375.45
same,inhibition at 8 g/ha,"[8]; Sesbania, post-emergence, Compound 74 8 g/ha alone",65%
same,inhibition at 16 g/ha,"[8]; Sesbania, post-emergence, Compound 74 16 g/ha alone",73%
same,inhibition at 31 g/ha,"[8]; Sesbania, post-emergence, Compound 74 31 g/ha alone",61%
same,inhibition at 125 g/ha,"[8]; Sesbania, post-emergence, Compound 74 125 g/ha alone",84%
same,inhibition at 163 g/ha,"[8]; Sesbania, post-emergence, Compound 74 163 g/ha alone",80%
same,inhibition at 250 g/ha,"[8]; Sesbania, post-emergence, Compound 74 250 g/ha alone",79%
same,inhibition at 2 g/ha,"[9]; Amaranthus retroflexus, post-emergence, Compound 74 2 g/ha alone",27%
same,inhibition at 4 g/ha,"[9]; Amaranthus retroflexus, post-emergence, Compound 74 4 g/ha alone",47%
same,inhibition at 8 g/ha,"[9]; Amaranthus retroflexus, post-emergence, Compound 74 8 g/ha alone",69%
same,inhibition at 16 g/ha,"[9]; Amaranthus retroflexus, post-emergence, Compound 74 16 g/ha alone",76%
same,inhibition at 31 g/ha,"[9]; Amaranthus retroflexus, post-emergence, Compound 74 31 g/ha alone",86%
same,inhibition at 63 g/ha,"[9]; Amaranthus retroflexus, post-emergence, Compound 74 63 g/ha alone",90%
same,ED₉₀,[9]; Compound 74 alone,ED₉₀(g/ha) 46.43
same,inhibition at 8 g/ha,"[10]; Bidens pilosa, post-emergence, Compound 74 8 g/ha alone",0%
same,inhibition at 16 g/ha,"[10]; Bidens pilosa, post-emergence, Compound 74 16 g/ha alone",0%
same,inhibition at 31 g/ha,"[10]; Bidens pilosa, post-emergence, Compound 74 31 g/ha alone",0%
same,inhibition at 125 g/ha,"[10]; Bidens pilosa, post-emergence, Compound 74 125 g/ha alone",48%
same,inhibition at 163 g/ha,"[10]; Bidens pilosa, post-emergence, Compound 74 163 g/ha alone",15%
same,inhibition at 250 g/ha,"[10]; Bidens pilosa, post-emergence, Compound 74 250 g/ha alone",75%
same,ED₅₀,[10]; Compound 74 alone,ED₅₀(g/ha)141.27
